{
  "source": "patent US20240376119A1",
  "about": "“SPIRO COMPOUND AND USE THEREOF” (CSPC Zhongqi Pharmaceutical Technology (Shijiazhuang) Co., …, priority 2021, published 2024)",
  "key": {"[1]": {"tested_on": "human lung adenocarcinoma NCI-H441 cells", "assay": "In vitro inhibitory effect on the proliferation of NCI-H441 cells (3D CellTiter Glo, 5 days)", "type": "cell-based", "settings": "120 h, 3D cell viability", "procedure": "The human lung adenocarcinoma cell NCI-H441 used in the assay was purchased from ATCC. The complete culture medium required for cell culture was RPMI 1640 Medium (GIBCO Company), which was supplemented with 10% fetal bovine serum (GIBCO Company). Cells were cultured in a 37° C., 5% CO2 incubator. The reagents used in the assay included dimethyl sulfoxide (purchased from Sigma), a 3D Cell Viability assay kit (purchased from Promega), and the control substance TW-45 used in the assay was obtained homemade. The test substance was sealed and stored at 4° C.\nDimethyl sulfoxide was used as the solvent to fully dissolve the test substance and prepare a stock solution with a concentration of 1×10^−2 mol/L. The stock solution was stored at −20° C. A complete culture medium was used as the diluent, and the test substance was diluted to different concentrations in gradient for later use (the final test concentration was 10000, 3333, 1111, 370, 123, 41, 13.7, 4.5, 1.5, and 0.5 nM). Cells were cultured in a 37° C., 5% CO2 incubator for 5 days. Detection was made on the fifth day. 30 μL of reagent (Celltiter Glo Assay Kit-3D) was added to each well and the plate was shaken on a plate oscillator (protected from light) for 30 minutes. The plate was incubated at room temperature (protected from light) for 120 minutes. Chemiluminescence values were recorded with a Multiplate reader. […]"}, "SHP2": {"molecular_target": "SHP2 (Homo sapiens (Human), UniProt Q06124)", "sequence (Q06124 whole entry)": "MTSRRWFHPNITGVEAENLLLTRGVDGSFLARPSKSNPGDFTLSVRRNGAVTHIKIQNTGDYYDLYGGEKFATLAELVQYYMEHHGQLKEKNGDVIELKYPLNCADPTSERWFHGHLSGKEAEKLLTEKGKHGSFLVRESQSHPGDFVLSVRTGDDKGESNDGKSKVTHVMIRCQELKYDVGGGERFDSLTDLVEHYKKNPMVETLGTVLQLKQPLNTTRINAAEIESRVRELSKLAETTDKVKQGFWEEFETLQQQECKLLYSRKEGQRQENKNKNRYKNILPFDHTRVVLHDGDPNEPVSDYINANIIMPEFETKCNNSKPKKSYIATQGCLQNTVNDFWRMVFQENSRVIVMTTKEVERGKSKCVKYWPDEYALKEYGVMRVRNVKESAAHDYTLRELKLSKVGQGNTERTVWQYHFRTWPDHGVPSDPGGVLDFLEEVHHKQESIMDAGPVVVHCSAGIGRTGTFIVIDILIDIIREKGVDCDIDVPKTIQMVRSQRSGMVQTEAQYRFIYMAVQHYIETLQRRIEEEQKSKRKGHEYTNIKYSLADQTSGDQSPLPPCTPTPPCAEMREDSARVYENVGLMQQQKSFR", "assay": "Assay for the inhibitory effect on the SHP2 enzyme (DiFMUP substrate, fluorescence)", "type": "biochemical", "settings": "SHP2 activated with SHP-2 activated peptide; DiFMUP 10 μM; read-out: Enzymatic Effect (IC50 on SHP2)", "procedure": "1× Assay buffer was prepared. A compound to be tested was diluted with DMSO solvent to a stock concentration of 10 mM. The compound to be tested was first diluted to an intermediate concentration of 1000 μM and then further diluted in a 3-fold gradient using DMSO. Therefore, the intermediate gradient dilution concentration of the compound to be tested was: 1000 μM, 3-fold dilution, 11 gradients. 100 nL of each concentration of the compound in the 384-well LDV echo plate was transferred to a new 384-well ELISA plate (assay plate) (corning, Cat #4514) by the Echo550 instrument. The final concentration of the compound to be tested was 10 μM, 3-fold dilution, 11 gradients in duplicate after 10 μL of the reaction reagent was added. The final DMSO concentration was 1%. For both negative and positive control wells, 100 nL DMSO would be transferred.\nA mixed liquor of 2× working SHP2 reagent (0.4 nM) and 0.5 μM SHP-2 activated peptide (BPS bioscience #79319-2) was prepared with 1× enzyme buffer. After the above-mixed liquor was incubated at 25° C. for 60 minutes, 5 μL of activated SHP2 kinase solution was transferred with a pipettor to the compound wells and the Max control wells (Corning, #4514) of the plate. Then 5 μL of 1× kinase buffer was transferred to the Min control wells. The plate was centrifuged at 1000 rpm for 30 seconds, sealed, and incubated in a 25° C. constant-temperature incubator for 30 minutes. A substrate solution of DiFMUP (#D6567, Invitrogen™) was prepared with 1× kinase buffer, and its concentration should be 2 times as the final concentration of the assay (DiFMUP final concentration: 10 μM). 5 μL of the prepared substrate solution was transferred with an electric pipettor into each well of the ELISA plate to start the reaction. The plate was centrifuged at 1000 rpm for 30 seconds, sealed, and incubated in a 25° C. constant-temperature incubator for 60 minutes. Read the plate at the excitation/emission wavelength of 358/455 nm after the ELISA plate was placed on the Spark machine.\nThe RLU values were collected from Spark and the inhibition rate was calculated with the RLU values. Inhibition rate=(maximum value-sample RLU)/(maximum value-minimum value)*100. “Minimum value” was referred to the RLU of the enzyme-free control, and “maximum value” was referred to the RLU of the DMSO control. The data were fit by using the XLFit Excel module (version 5.4.0.8) to obtain IC50 values, and the results are shown in Table 1."}, "hERG channel": {"molecular_target": "hERG channel (Homo sapiens (Human), UniProt Q12809)", "sequence (Q12809 whole entry)": "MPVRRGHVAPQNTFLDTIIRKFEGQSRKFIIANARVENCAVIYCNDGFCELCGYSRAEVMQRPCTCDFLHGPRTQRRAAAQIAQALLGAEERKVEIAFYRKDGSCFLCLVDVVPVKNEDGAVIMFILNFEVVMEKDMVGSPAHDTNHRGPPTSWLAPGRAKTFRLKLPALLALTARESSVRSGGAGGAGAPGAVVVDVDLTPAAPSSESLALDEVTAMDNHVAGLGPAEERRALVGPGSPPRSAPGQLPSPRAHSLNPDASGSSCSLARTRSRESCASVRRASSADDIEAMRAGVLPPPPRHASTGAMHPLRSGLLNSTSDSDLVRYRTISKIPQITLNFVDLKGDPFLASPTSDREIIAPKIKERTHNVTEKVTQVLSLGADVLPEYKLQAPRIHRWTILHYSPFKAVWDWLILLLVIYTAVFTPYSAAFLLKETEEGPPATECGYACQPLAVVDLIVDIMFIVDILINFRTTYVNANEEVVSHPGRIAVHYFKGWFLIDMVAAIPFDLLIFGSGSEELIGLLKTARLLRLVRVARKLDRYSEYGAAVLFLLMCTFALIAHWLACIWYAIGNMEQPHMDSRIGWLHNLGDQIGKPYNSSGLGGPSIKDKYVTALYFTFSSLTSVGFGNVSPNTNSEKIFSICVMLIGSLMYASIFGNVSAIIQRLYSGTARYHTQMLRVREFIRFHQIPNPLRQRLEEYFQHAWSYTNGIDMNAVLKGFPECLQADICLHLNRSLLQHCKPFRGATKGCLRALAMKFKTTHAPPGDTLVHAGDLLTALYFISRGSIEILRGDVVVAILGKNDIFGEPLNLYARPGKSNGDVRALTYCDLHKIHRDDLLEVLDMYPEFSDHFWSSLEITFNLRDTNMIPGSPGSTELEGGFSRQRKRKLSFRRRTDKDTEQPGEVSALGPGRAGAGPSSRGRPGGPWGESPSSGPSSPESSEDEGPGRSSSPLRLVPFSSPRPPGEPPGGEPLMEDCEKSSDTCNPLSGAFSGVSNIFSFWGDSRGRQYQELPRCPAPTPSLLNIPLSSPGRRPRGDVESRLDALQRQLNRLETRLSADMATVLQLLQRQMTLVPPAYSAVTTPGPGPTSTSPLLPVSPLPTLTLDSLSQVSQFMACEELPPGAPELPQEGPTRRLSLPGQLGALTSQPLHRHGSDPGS", "assay": "hERG assay, manual whole-cell patch clamp in CHO-K1 cell line stably expressing the hERG channel", "type": "cell-based", "procedure": "This assay included the following aspects: • A manual patch clamp technique was used to record the hERG current in the CHO-K1 cell line stably expressing the hERG channel; • The inhibition rate at each concentration was calculated based on the hERG tail current; • Each compound was tested at 5 concentrations to calculate the IC50 value; • Three cells were tested for each concentration; • One positive control drug was set.\nHERG currents were recorded using the whole-cell patch-clamp technique. The cell suspension was added to the cell tank and placed on the upright microscope stage. After the cell adherence, the cells were perfused with extracellular fluid at a flow rate of 1-2 mL/min. The glass microelectrode was drawn in two steps by a micropipette puller, and its resistance value in water was 2-5 MΩ. After establishing the whole-cell recording, the clamp potential was maintained at −80 mV. The hERG tail current was elicited by applying a depolarizing voltage to +60 mV upon the voltage stimulation and then repolarizing to −50 mV. All recordings were made after the current stabilization. Extracellular perfusion administration started from a low concentration, and each concentration lasted for 5-10 minutes until the current was stable, and then proceeded to the next concentration.\nThe half inhibitory concentration (ICSO) of the test compound was derived from the best fit of the Logistic equation."}, "[2]": {"assay": "Mouse pharmacokinetic assay (intragastric administration, plasma HPLC-MS/MS)", "type": "in vivo", "settings": "ICR mice", "procedure": "ICR mice were intragastrically administered with the compound at 10 mg/kg or 20 mg/kg. At different time points (0.25 h, 0.5 h, 1 h, 2 h, 4 h, 8 h, 24 h) after administration, the mice blood was collected from the orbit. The collected whole blood was anticoagulated with heparin sodium and centrifuged at 3000 g to obtain mouse plasma samples. Methanol was added to precipitate proteins. The drug concentration in the mouse plasma after administration was determined by the HPLC-MS/MS method. A drug concentration-time curve was plotted and the pharmacokinetic parameters were calculated. The pharmacokinetic behavior in mice after the compound administration was described by means of non-compartment model statistical moment parameters."}, "[3]": {"settings": "mouse, po, intragastric, 10 mg/kg, plasma"}},
  "data": [
    {"smiles": "[2H][C@@]1(N)c2ccccc2OC12CCN(c1nc(N)c(Sc3ccnc(N)c3Cl)nc1C(C)=O)CC2", "note": "[Compound 56, (R)-1-(5-amino-6-((2-amino-3-chloropyridine-4-yl)sulfanyl)-3-(3-amino-3-deuterium-spiro[benzofuran-2,4′-piperidine]-1′-yl)pyrazine-2-yl)ethanone]", "values": [
      {"measurement": "IC50", "setting": "[1]", "value": "≤ 20", "unit": "nM"},
      {"measurement": "IC50", "setting": "SHP2", "value": "≤ 20", "unit": "nM"},
      {"measurement": "IC50", "setting": "hERG channel; CHO-K1 stable cell line, hERG tail current, 5 concentrations", "value": "> 10000", "unit": "nM"},
      {"measurement": "inhibitory effect on the hERG channel (in words)", "setting": "hERG channel; within the detection concentration range of the assay", "value": "no obvious inhibitory effect on the hERG channel"},
      {"measurement": "exposure and absorption in mice (in words)", "setting": "[2]; intragastric administration", "value": "relatively high exposure in mice and both were well absorbed in vivo"},
      {"measurement": "Cmax", "setting": "[2]; [3]", "value": 3570, "unit": "ng/mL"},
      {"measurement": "Tmax", "setting": "[2]; [3]", "value": 30, "unit": "min"},
      {"measurement": "AUC(0-t)", "setting": "[2]; mouse, po, intragastric, 10 mg/kg, plasma, read-out: AUC0-24 h", "value": 18300, "unit": "ng·h/mL"}
    ]}
  ]
}
